US20240108684A1, “DOSING REGIMENS FOR TREATMENT OF FUNGAL INFECTIONS” (priority 2016, published 2024)
Like-named read-outs stand apart in the source and are kept apart here. *1 amine or outer side, *2 acyl side, *3 side chain or, on linkers, in order; H or OH if unused. Where a SMILES comes first, the peptide text is derived from it. Bridges are numbered along the chain shown (N, C = ends). [ ]: non-standard residue; d: D form. The star is where a group is joined. Orn(4R-OH,5R-OCH2CH2NMe3+) = C[N+](C)(C)CCO[C@@H](N[*:3])[C@H](O)C[C@H](N[*:1])C(=O)[*:2]; pTerphenylCO(4''-OnC5H11) = CCCCCOc1ccc(-c2ccc(-c3ccc(C(=O)*)cc3)cc2)cc1; hTyr(3S-OH,4S-OH) = N[C@H](C(=O)O)[C@H](O)[C@@H](O)c1ccc(O)cc1; Pro(3S-OH,4S-Me) = C[C@H]1CN[C@H](C(=O)O)[C@H]1O; Hyp = O=C(O)[C@@H]1C[C@@H](O)CN1

What was measured:
C. glabrata = assay: Mutant prevention concentration (MPC); assay type: cell-based, Candida glabrata
From the text: As used herein, the term “mutant prevention concentration” or “MPC” refers to the concentration of a drug sufficient to suppress the development of all but very rare spontaneous mutants. The range of drug concentrations between the MIC and MPC represents a mutant selection window wherein de novo mutants are most likely to occur. Therapeutic regimens that maximize the duration of drug concentrations in excess of the MPC thereby minimize the potential for resistance development during the course of therapy.
Selection of resistance strains in vivo predominantly occurs over a range of drug concentrations falling between the MIC and MPC values. Dosing paradigms that result in plasma drug concentrations in excess of the MPC are therefore more desirable and effective in preventing the development of de novo mutants during the course of therapy (see, e.g., Drlica et al., J. Antimicrob. Chemother. 52:11-17, 2003). Currently approved treatment regimens for caspofungin, micafungin, and anidulafungin involve once-daily dosing at levels such that the Cmax is unlikely to be equivalent to or exceed the MPC at any point during treatment.

[1] = Single ascending dose IV study in healthy adult subjects (safety, PK); assay type: in vivo, human; settings: for AUC(0-t): read-out: AUC0-168; for concentration at 144 h: read-out: C144
Description: In a first study, CD101 was administered by IV injection to healthy adult subjects. In this study, subjects in 4 cohorts of 8 subjects (6 active, 2 placebo) each were randomized to receive single IV doses of CD101 or placebo (normal saline) infused over 60 (±5) minutes. Dose levels of CD101 assessed follow an ascending single-dose regimen (50, 100, 200, or 400 mg).
Pharmacokinetics were first determined by analyzing plasma and urine samples for concentration of CD101 obtained from subjects who received CD101 in each cohort at various time points after administration of the single dose of the study drug.

[2] = Plasma protein binding assumed for the simulations; assay type: in vitro ADME; settings: assumed for the Monte Carlo simulations
Description: (§1) Monte Carlo simulations were conducted to assess the probability of PK-pharmacodynamic (PD) target attainment using a variety of exploratory dosing regimens. Two dosing regimens were selected for further investigation (Table 5). […] Nonclinical studies of Candida albicans infections in mice have shown that a CD101 fAUC0-168:MIC ratio of 10 has been associated with a 2-log reduction in fungal burden in infected kidneys. This value of 10 was therefore chosen as the PK-PD target of interest for the Monte Carlo simulations.

Candida albicans = assay: Nonclinical studies of Candida albicans infections in mice (PK-PD target); assay type: in vivo
Description: as §1

C. albicans (R357) = assay: Disseminated infection model with C. albicans R357, kidney fungal counts; assay type: in vivo, ICR mice
[3] = Single dose plasma PK after IP doses; settings: mouse, 64 mg/kg
C. albicans = assay: Neutropenic murine disseminated candidiasis model, PK/PD; settings: for 1 log kill dose / Static Dose: single IP dose
[4] = human, plasma, 50 mg 1-hour IV infusion
[5] = human, plasma, 100 mg 1-hour IV infusion
[6] = human, plasma, 200 mg 1-hour IV infusion
[7] = human, plasma, 400 mg 1-hour IV infusion
[8] = single IV 50, 100, 200 or 400 mg

Question: For `CCCCCOc1ccc(-c2ccc(-c3ccc(C(=O)N[C@H]4C[C@@H](O)[C@@H](OCC[N+](C)(C)C)NC(=O)[C@@H]5[C@@H](O)[C@@H](C)CN5C(=O)[C@H]([C@@H](C)O)NC(=O)[C@H]([C@H](O)[C@@H](O)c5ccc(O)cc5)NC(=O)[C@@H]5C[C@@H](O)CN5C(=O)[C@H]([C@@H](C)O)NC4=O)cc3)cc2)cc1` [CD101] ({pTerphenylCO(4''-OnC5H11)}-[Orn(4R-OH,5R-OCH2CH2NMe3+)]T[Hyp][hTyr(3S-OH,4S-OH)]T[Pro(3S-OH,4S-Me)]; lactam 1-C), which MPC (C. glabrata) is on record?
Answer: 16 µg/mL

Question: And the Cmax ([1]; 400 mg 1-hour IV infusion)?
Answer: 22700 ng/mL

Question: And the Dose proportionality ([1]; 50-400 mg single IV)?
Answer: AUC and Cmax increased in a dose proportional manner

Question: And the “Fraction of dose excreted in urine” value ([1]; all dose levels)?
Answer: < 1%

Question: What about the half-life ([1]; human, plasma, intravenous, incorporating data from later collection times, read-out: terminal t1/2) of the same compound?
Answer: 127 to 146 h

Question: What about the half-life ([1]; human, plasma, intravenous, through the first week of plasma collection, read-out: t1/2 (converted)) of the same compound?
Answer: > 80 h

Question: What about the Vd ([1]; human, plasma, intravenous, 50-400 mg, read-out: Volume of distribution (Vz and Vss)) of the same compound?
Answer: 33 to 48 L

Question: What about the clearance ([1]; human, plasma, intravenous, across the CD101 doses 50-400 mg, read-out: Total body clearance) of the same compound?
Answer: ~4 mL/min

Question: What about the Tmax ([1]; human, plasma, intravenous, after start of 1-hour infusion, all doses) of the same compound?
Answer: ~1 h

Question: What about the half-life ([1]; human, plasma, iv, 50 mg, 50 mg 1-hour IV infusion, read-out: t1/2 (converted)) of the same compound?
Answer: 86 h

Question: What about the half-life ([1]; human, plasma, iv, 100 mg, 100 mg 1-hour IV infusion, read-out: t1/2 (converted)) of the same compound?
Answer: 92 h

Question: What about the half-life ([1]; human, plasma, iv, 200 mg, 200 mg 1-hour IV infusion, read-out: t1/2 (converted)) of the same compound?
Answer: 91 h

Question: What about the half-life ([1]; human, plasma, iv, 400 mg, 400 mg 1-hour IV infusion, read-out: t1/2 (converted)) of the same compound?
Answer: 84 h

Question: What about the AUC(0-t) [1, 4] of the same compound?
Answer: 145 µg·h/mL

Question: And the concentration at 144 h [1, 4]?
Answer: 481 ng/mL

Question: What about the Cmax ([1]; human, plasma, 50 mg 1-hour IV infusion, read-out: Cmax) of the same compound?
Answer: 2760 ng/mL

Question: What about the AUC(0-t) [1, 5] of the same compound?
Answer: 254 µg·h/mL

Question: What about the concentration at 144 h [1, 5] of the same compound?
Answer: 854 ng/mL

Question: And the Cmax ([1]; human, plasma, 100 mg 1-hour IV infusion, read-out: Cmax)?
Answer: 4840 ng/mL

Question: And the AUC(0-t) [1, 6]?
Answer: 592 µg·h/mL

Question: And the concentration at 144 h [1, 6]?
Answer: 2010 ng/mL

Question: And the Cmax ([1]; human, plasma, 200 mg 1-hour IV infusion, read-out: Cmax)?
Answer: 10900 ng/mL

Question: What about the AUC(0-t) [1, 7] of the same compound?
Answer: 1160 µg·h/mL

Question: And the concentration at 144 h [1, 7]?
Answer: 3830 ng/mL

Question: And the “Drug-related AEs from laboratory abnormalities” value [1, 8]?
Answer: no drug-related AEs resulting from clinically significant hematology or clinical chemistry laboratory abnormalities at any dose

Question: And the “ECG, vital signs, physical exam” value [1, 8]?
Answer: no safety issues related to electrocardiograms (ECGs), vital signs, or physical exam findings

Question: And the “Serious and severe adverse events” value [1, 8]?
Answer: no serious adverse events (SAEs), severe adverse events (AEs), or dose-response relationships for overall AEs

Question: And the “Severity and resolution of AEs” value [1, 8]?
Answer: majority of AEs were mild, and all AEs completely resolved by the end of the study

Question: And the Safety and tolerability ([1]; single dose up to 400 mg)?
Answer: safe and well tolerated

Question: What about the Plasma protein binding [2] of the same compound?
Answer: 99.1%

Question: And the “fAUC0-168:MIC ratio associated with a 2-log reduction in fungal burden in infected kidneys” value (Candida albicans)?
Answer: 10

Question: What about the “Antimicrobial effect versus vehicle (kidney fungal counts)” value (C. albicans (R357); 3, 10, and 30 mg/kg IP once, 48 and 72 hr after infection) of the same compound?
Answer: Significant antimicrobial effects (P<0.05)

Question: And the “Reduction in fungal counts” value (C. albicans (R357); all CD101 groups (3, 10, 30 mg/kg IP), 48 and 72 hr)?
Answer: two log reduction

Question: What about the AUC(0-inf) [3] of the same compound?
Answer: 93 to 4050 µg·h/mL

Question: What about the Cmax [3] of the same compound?
Answer: 2600 to 77000 ng/mL

Question: What about the half-life [3] of the same compound?
Answer: 28 to 41 h

Question: What about the “1 log kill Ave 24 h AUC/MIC” value (C. albicans; C. albicans 98-17) of the same compound?
Answer: 490

Question: And the “Stasis Ave 24 h AUC/MIC” value (C. albicans; C. albicans 98-17)?
Answer: 274

Question: What about the “1 log kill dose” value (C. albicans; C. albicans 98-17, 7 days) of the same compound?
Answer: 2.73 mg/kg

Question: What about the “Static Dose” value (C. albicans; C. albicans 98-17, 7 days) of the same compound?
Answer: 1.34 mg/kg

Question: What about the “1 log kill Ave 24 h AUC/MIC” value (C. albicans; C. albicans 98-210) of the same compound?
Answer: 1574

Question: And the “Stasis Ave 24 h AUC/MIC” value (C. albicans; C. albicans 98-210)?
Answer: 868

Question: What about the “1 log kill dose” value (C. albicans; C. albicans 98-210, 7 days) of the same compound?
Answer: 2.28 mg/kg

Question: And the “Static Dose” value (C. albicans; C. albicans 98-210, 7 days)?
Answer: 1.06 mg/kg

Question: And the “1 log kill Ave 24 h AUC/MIC” value (C. albicans; C. albicans 580)?
Answer: 1429

Question: What about the “Stasis Ave 24 h AUC/MIC” value (C. albicans; C. albicans 580) of the same compound?
Answer: 948

Question: And the “1 log kill dose” value (C. albicans; C. albicans 580, 7 days)?
Answer: 2.03 mg/kg

Question: And the “Static Dose” value (C. albicans; C. albicans 580, 7 days)?
Answer: 1.20 mg/kg

Question: What about the “1 log kill Ave 24 h AUC/MIC” value (C. albicans; C. albicans K-1) of the same compound?
Answer: 6435

Question: What about the “Stasis Ave 24 h AUC/MIC” value (C. albicans; C. albicans K-1) of the same compound?
Answer: 3426

Question: What about the “1 log kill dose” value (C. albicans; C. albicans K-1, 7 days) of the same compound?
Answer: 5.26 mg/kg

Question: And the “Static Dose” value (C. albicans; C. albicans K-1, 7 days)?
Answer: 2.52 mg/kg

Question: What about the Maximal kill (C. albicans; C. albicans and C. glabrata strains, 0.016-64 mg/kg once IP, 7 days) of the same compound?
Answer: over 2 log10 CFU/kidney
